{"source": "patent US20200155567A1", "about": "“TREATMENT OF CANCERS USING A COMBINATION COMPRISING PARP INHIBITORS, TEMOZOLOMIDE AND/OR RADIATION THERAPY” (BEIGENE, LTD., priority 2017, published 2020)", "key": {"[1]": {"system": "locally advanced or metastatic solid tumors", "type": "in vivo", "description": "This dose-escalation/expansion study is enrolling pts using a modified 3+3 design to establish the safety and MTD of Compound B plus TMZ. During dose escalation, pts receive Compound B plus escalating doses of TMZ QD on Days 1-7 (Arm A) or continuously (Arm B) of each 28-day cycle. In Arm A and Arm B: Compound B was administered at the doses of 60 mg PO BID; TMZ was administered at 20 mg, 40 mg, 80 mg, 120 mg QD corresponds to 12 mg/m^2, 23 mg/m^2, 46 mg/m^2and 69 mg/m^2assuming an average body surface area of 1.73 m^2, respectively will be administered PO QD.\nThe primary endpoint is safety/tolerability, including estimation of MTD and RP2D. Key secondary endpoints are PK profiles of TMZ and Compound B and antitumor activity (RECIST v1.1) of combination treatment; biomarker (eg, gBRCA) assessment is exploratory."}, "[2]": {"system": "non-BRCA1/2-mutated cancers", "settings": "cited from earlier work"}, "PARP1/2": {"system": "PARP1/2", "settings": "disclosed in WO2013/097225A1; cited from earlier work"}, "brain penetrance": {"test": "brain penetrance", "settings": "in vivo"}, "[3]": {"system": "tumor cell lines with defects of the HR pathway", "test": "in vitro activity against tumor cell lines with defects of the HR pathway", "type": "cell-based", "text": "(§1) Inhibition of PARylation in the tumor tissues correlated well with tumor drug concentrations of Compound B."}, "[4]": {"system": "H209-T small cell lung cancer xenografts", "test": "H209-T intracranial tumor model", "type": "in vivo, nude mice", "settings": "single agent, 2.73 mg/kg BID", "text": "H209-T is a TMZ-resistant cell line generated by treating H209-xenografted tumors with multiple cycles of TMZ in vivo."}, "[5]": {"system": "newly diagnosed or recurrent/refractory glioblastoma (GBM)", "test": "dose-escalation/expansion study of Compound B with RT and/or TMZ in GBM (Example 5)", "type": "in vivo, human", "settings": "across study arms, 15 patients", "description": "This ongoing dose-escalation/expansion study was designed to determine the safety/tolerability and antitumor effects of Compound B (60 mg PO BID) in combination with RT and/or TMZ. The dose-escalation component consists of 3 arms:\n(Arm A) Compound B (60 mg BID) at increasing exposures of 2, 4, or 6 weeks in combination with RT for 6 to 7 weeks, in newly diagnosed patients with GBM with unmethylated MGMT promoter (‘unmethylated GBM’)), and after RT is completed, subjects will receive no further study treatment;\n(Arm B) Depending on the safety of the Arm A combination, Compound B in combination with RT for 6 to 7 weeks and increasing TMZ doses, in newly diagnosed patients with unmethylated GBM, and after RT is completed, subjects will receive no further study treatment;\n(Arm C) Compound B in combination with increasing dose of TMZ administered on Days 1 to 21 of each 28-day cycle, in patients with recurrent/refractory methylated or unmethylated GBM.\nIn Arm A, Arm B and Arm C: Compound B was administered at the doses of 60 mg BID (PO); Radiation therapy (RT) was administered QD×5 days/week for 6 to 7 weeks with 1.8 to 2 Gy/fraction for a total dose of up to 60 Gy; flat-dosing was used for TMZ, and the first dose level of 40 mg QD corresponds to 23 mg/m^2 assuming an average body surface area of 1.73 m^2. […]"}, "PARylation": {"system": "PARylation", "test": "PK/PD study, PARylation in MDA-MB-436 breast cancer xenografts", "type": "in vivo, mice", "settings": "oral administration", "text": "as §1"}, "MDA-MB-436 breast cancer": {"system": "MDA-MB-436 breast cancer", "test": "BRCA1-mutant mouse xenograft model (MDA-MB-436 breast cancer)", "type": "in vivo", "text": "as §1"}, "[6]": {"system": "H209 small cell lung cancer xenograft", "settings": "single agent, 2.73 mg/kg BID x 21 days"}}, "data": [{"smiles": "Cn1nnc2c(C(N)=O)ncn2c1=O", "note": "[TMZ, temozolomide]", "values": [{"measurement": "most common drug-related AE: thrombocytopenia (n pts)", "setting": "[1]; human, in vivo", "result": 5}, {"measurement": "MTD, TMZ", "setting": "[2]; with 1 mg talazoparib", "result": 37, "unit": "mg/m^2"}]}, {"smiles": "C[C@]12CCCN1CC1=NNC(=O)c3cc(F)cc4[nH]c2c1c34", "note": "[Compound A, (R)-2-fluoro-10a-methyl-7,8,9,10,10a,11-hexahydro-5,6,7a,11-tetraazacyclohepta[def]cyclopenta[a]fluoren-4(5H)-one]", "values": [{"measurement": "PARP1/2 inhibitory activities", "setting": "PARP1/2", "result": "highly selective and potent"}]}, {"smiles": "C[C@]12CCCN1CC1=NNC(=O)c3cc(F)cc4[nH]c2c1c34", "note": "[Compound B, (R)-2-fluoro-10a-methyl-7,8,9,10,10a,11-hexahydro-5,6,7a,11-tetraazacyclohepta[def]cyclopenta[a]fluoren-4(5H)-one sesqui-hydrate]", "values": [{"measurement": "most common drug-related AE: nausea (n pts)", "setting": "[1]; 16 pts, Compound B 60 mg BID plus TMZ 20-120 mg QD", "result": 6}, {"measurement": "plasma exposure", "setting": "[1]; in combination", "result": "consistent with single-agent trials"}, {"measurement": "brain penetrance", "setting": "brain penetrance", "result": "significant brain penetrance"}, {"measurement": "in vitro activity as a single agent", "setting": "[3]", "result": "excellent in vitro activity"}, {"measurement": "effect on tumor growth", "setting": "[4]", "result": "no significant effect on tumor growth"}, {"measurement": "Compound B-related AE fatigue (n patients)", "setting": "[5]", "result": 5}, {"measurement": "Compound B-related AE nausea (n patients)", "setting": "[5]", "result": 6}, {"measurement": "inhibition of PARylation in xenografts", "setting": "PARylation", "result": "time- and dose-dependent inhibition of PARylation"}, {"measurement": "potency relative to olaparib", "setting": "MDA-MB-436 breast cancer; more potent than olaparib", "result": 16, "unit": "fold"}, {"measurement": "anti-tumor activity", "setting": "MDA-MB-436 breast cancer; single agent", "result": "strong anti-tumor activity"}, {"measurement": "effect on tumor growth", "setting": "[6]", "result": "no significant effect on tumor growth"}]}, {"smiles": "Cn1ncnc1[C@H]1c2n[nH]c(=O)c3cc(F)cc(c23)N[C@@H]1c1ccc(F)cc1", "note": "[talazoparib]", "values": [{"measurement": "MTD, talazoparib", "setting": "[2]; plus 37 mg/m^2 of TMZ", "result": 1, "unit": "mg"}]}]}
